Experimental data: patent publication US20190083508A1, “USE OF OX1R ANTAGONISTS FOR THE TREATMENT OF INFLAMMATORY BOWEL DISEASES” (Inserm (Institut National De La Sante et de la Recherche …, priority 2014, published 2019)
No end group written: not given here.

Key:
[1] = tested on: DSS-treated mice; experiment: Length of colon from DSS-treated mice mimicking acute ulcerative colitis; assay type: in vivo; settings: 5% DSS in drinking water; daily ip 20 μg; one week
Experimental: FIG. 8: Effect of daily ip inoculation of OxA, Suvorexant and Almorexant on the length of colon from DSS- (dextran sulfate sodium) treated mice mimicking the acute ulcerative colitis disease. A. Mice were treated with 5% (w/v) DSS in drinking water and daily injected with 20 μg of OxA (OXA IP), 20 μg of Suvorexant (Suvo) or 20 μg of Almorexant (Almo). Control (wt) or treated DSS mice (DSS) were daily injected with 100 μl PBS. After one week of treatment, mice were sacrificed and the length of colon which represented a good marker of inflammation state, was measured. […] B. quantification of colon length from 5 different DSS-treated mice injected with OxA (DSS+OXA IP), Almorexant (DSS+Almo), Suvorexant (DSS+Suvo) or not injected (WT and DSS). NS, no significant; *, p<0.05; ** p<0.001
The inventors also investigated the effect of daily intraperitoneal inoculation of OxA, Suvorexant and Almorexant on the length of colon from DSS- (dextran sulfate sodium) treated mice mimicking the acute ulcerative colitis disease.

[2] = tested on: DSS-induced colitis mice; experiment: DSS-induced colitis mice, Disease Activity Index; assay type: in vivo, Balb/c mice; settings: 5% DSS orally 7 days; daily ip 0.22 μmoles/kg
Excerpt: FIG. 2: OXA ameliorates the DAI (weight and colitis score) of DSS-induced colitis mice. Mice were orally treated with 5% DSS for 7 days in the presence or in the absence of daily intraperitoneal injection of OxA (0.22 μmoles/kg). Left, determination of gain or loss of weight in the absence of DSS treatment (Control, ▴), in the presence of DSS treatment (DSS, ▪) and in the presence of DSS associated to OxA treatment (DSS+OxA, ●). Right, evaluation of Disease Activity Index (DAI) scored by measuring weight, length of colon, diarrhea and blood presence in the stool in DSS untreated control mice (Control, ▴), in DSS treated mice (DSS, ▪) and in DSS treated mice associated to OxA treatment (DSS+OxA, ●).
Based on these observations, we have investigated the effect of Orexin A (OxA) on acute inflammation in mice treated with Dextran Sulfate Sodium (DSS). OxA was preferentially chosen in these experiments since the presence of two disulphide bridges confers it more stability. DSS induces acute colitis characterized by weight loss, bloody diarrhea, intestinal ulcerations and infiltrations with granulocytes.
(§1) Balb/c mice were orally treated by 5% (w/v) of Dextran Sulfate Sodium (DSS) for 7 days. […] Weight and colitis symptoms (diarrhea, blood in the stool . . . ) for each mouse was daily measured. […]

[3] = tested on: DSS-induced colitis mice; experiment: Cytokine assays in colon extracts of DSS-induced colitis mice; assay type: in vivo; settings: daily ip 0.22 μmoles/kg, 7 days
Experimental: FIG. 3: OXA effects on cytokines secretion in DSS-induced colitis mice. Right, Colons of DSS untreated mice (white), DSS treated mice (gray) and DSS treated mice associated to OxA treatment (black) were resected after animal sacrifice. Then, protein extraction was performed by tissue disruption. Cytokines were determined using Cytokine CBA kits (see Material and Methods). Left, after colon resection, RNA were extracted from colonic tissue and qPCR was performed using specific oligonucleotides for IL8 homolog and IL1B.
These observations are confirmed by histologic aspect of colon epithelium (histologic scoring by a GI pathologist). Thus, OxA has probably an anti-inflammatory effect on DSS-induced colitis. To confirm this hypothesis, we have investigated the anti-inflammatory effect of OxA treatment on cytokines secretion in colon extracts from DSS-treated mice. […] In contrast, OxA has no effect on INFγ, IL10, and IL12 cytokine secretion in colon extracts (FIG. 3).
Balb/c mice were orally treated by 5% (w/v) of Dextran Sulfate Sodium (DSS) for 7 days. Orexin treatment was carried out in DSS treated mice by daily intraperitoneal injection of OxA (0.22 μmoles/kg) for 7 days. Weight and colitis symptoms (diarrhea, blood in the stool . . . ) for each mouse was daily measured. After 7 days of treatment, animals were sacrificed and colons were resected to further analyses (size, histological aspect, cytokine assays). […] mice (IL10^−/− and Nox1^−/−) which develop a spontaneous colitis at 6/7 weeks of age were treated or not with OxA (0.22 μmoles/kg, 2 intraperitoneal injection/week for 21 days). After animal sacrifice colons were resected and histologic analysis was performed.
Mice were sacrificed and colons were resected. Proteins were extracted from colon by tissue disruption in PBS using Tissue Lyser (Qiagen, Courtaboeuf, France). Various cytokines (see FIG. 3) were determined using Cytokine CBA kits (BD Sciences, Le Pont de Claix, France).

[4] = tested on: EXCY2 mice; experiment: Spontaneous UC-like colitis in EXCY2 mice (IL10-/-; Nox1-/-), colon histology; assay type: in vivo; settings: 10 week-old EXCY2 mice, 0.22 μmoles/kg, 2 IP/week during 3 weeks
Experimental: FIG. 4: Histological aspect of colon mucosa in OxA treated EXCY2 mice (right) and non-treated EXCY2 mice (left). EXCY2 mice genetically invalidated for IL10 and Nox1 genes (IL10^−/− and Nox1^−/−) which develop spontaneous UC-like disease, were treated with OxA (0.22 μmoles/kg, 2 intraperitoneal injection/week for 21 days) (right) or untreated (left). After animal sacrifice colons were resected and histologic analysis was performed.
DSS mouse model has been extensively used to decipher the mucosal inflammation in IBD, UC pathogenesis, and preclinical studies. However, mice show differential susceptibilities and responsiveness to DSS-induced colitis depending on their genetic background, gender. DSS model is a faithful model of inflammation but departs from Ulcerative Colitis in part for lack of the inflammation gradient from the rectum to the proximal colon usually observed in UC, any deregulation of ER stress in goblet cells known to be an early etiological factor of UC, and no digestive or extra-digestive complications of UC such as cholangitis and colorectal cancer, respectively. The use of genetically modified mice model represents a good alternative to chemically-induced colitis mice model. […]
as §1

[5] = target: T1, OX1R (Homo sapiens, UniProt O43613); experiment: Ca2+ mobilization assay in HEK-OX1R cells (FluoForte); assay type: cell-based
T1 construct: HEK cells expressing recombinant native OX1R (HEK-OX1R); expressed in transfected cells; host or cells: HEK cells (HEK-OX1R)
T1 sequence (O43613 1-425): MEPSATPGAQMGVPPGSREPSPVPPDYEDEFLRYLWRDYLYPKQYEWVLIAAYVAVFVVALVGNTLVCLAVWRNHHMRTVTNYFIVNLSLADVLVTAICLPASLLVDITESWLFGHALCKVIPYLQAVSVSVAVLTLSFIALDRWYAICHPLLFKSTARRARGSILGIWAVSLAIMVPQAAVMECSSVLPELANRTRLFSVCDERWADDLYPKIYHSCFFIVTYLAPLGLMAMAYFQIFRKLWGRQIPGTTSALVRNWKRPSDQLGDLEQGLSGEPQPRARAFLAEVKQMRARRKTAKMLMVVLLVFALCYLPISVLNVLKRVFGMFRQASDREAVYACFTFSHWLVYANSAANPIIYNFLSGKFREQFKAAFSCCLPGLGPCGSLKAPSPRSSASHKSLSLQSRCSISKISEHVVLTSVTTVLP
Experimental: FIG. 5: Effect of orexin-A and SB408124 antagonist on Ca2+ mobilization in HEK-OX1R cells. Top, HEK-OX1R cells were incubated with fluorescence probe (FluoForte) for 45 min. at 37° C. according to FluoForte calcium assay kit (Enzo Life Sciences). 1 μM of OxA was added to cells and fluorescence emission was measured on TECAN Infinite 200 fluorospectrophotometer. Bottom, HEK-OX1R cells were incubated with fluorescence probe (FluoForte) for 45 min. at 37° C. and then incubated with 1 μM of SB408124 for 1 h at 37° C. After pre-incubation, 1 μM of OxA was added to cells and fluorescence emission was measured.
HEK cells expressing recombinant native OX1R (HEK-OX1R) cells were seeded in 96-wells plate, grown and maintained at 37° C. in a humidified 5% CO2/air incubator. 80,000 cells/well were incubated with FluoForte probe according to FluoForte calcium assay kit (ENZO life Sciences, Farmingdale, N.Y., USA) for 45 min. at 37° C. and then incubated with or without 1 μM of […] antagonist for 1 h at 37° C. After pre-incubation, 1 μM of OxA was added and fluorescence was determined using TECAN Infinite 200 fluorospectrophotometer.

[6] = tested on: HEK-OX1R cells; experiment: Cell growth determination, HEK-OX1R cells; assay type: cell-based; settings: 48 hr, 0.1 μM OxA or increasing concentrations of SB408124
Experimental: (§2) FIG. 6: Determination of the inhibition of cellular growth of HEK-OX1R cells and colon adenocarcinoma cells (HT-29) induced by 0.1 μM of OxA or various concentrations of SB408124 antagonist. HEK-OX1R cells (black column) and HT-29 cells (white column) were incubated with 0.1 μM of OxA and indicated increasing concentration of SB408124, and cells were counted after 48 hr incubation. Results are expressed as the percentage of total viable cells.
(§3) HEK-OX1R cells or colon adenocarcinoma HT-29 cells were seeded, grown and maintained at 37° C. in a humidified 5% CO2/air incubator. After 24 hr culture, cells were treated with or without Orexin-A peptide or SB408124 antagonist, previously dissolved in DMSO, to be tested at the concentration indicated in the figure legends. After 48 hr of treatment, adherent cells were harvested by TriplE (Life Technologies, Saint Aubin, France) and manually counted. Apoptosis was determined using the Guava PCA system and the Guava nexin kit.

[7] = tested on: colon adenocarcinoma HT-29 cells; experiment: Cell growth determination, HT-29 cells; assay type: cell-based; settings: 48 hr, 0.1 μM OxA or increasing concentrations of SB408124
Experimental: as §2, §3

[8] = tested on: colon adenocarcinoma HT-29 cells; experiment: Apoptosis assay (annexin V-PE binding), HT-29 cells; assay type: cell-based; settings: 48 h, 1 μM orexin-A or various concentrations of SB408124
Experimental: FIG. 7: Effect of orexin-A and SB408124 antagonist on apoptosis in OX1R expressing colon adenocarcinoma cells, HT-29. HT-29 cells were challenged with 1 μM orexin-A or various concentration of SB408124 for 48 h. Apoptosis was measured by determination of annexin V-PE binding, and results are expressed as the percentage of apoptotic cells. Results are means±SE of three experiments. ***P<0.001.
as §3

In the case of `Cc1ccc(-n2nccn2)c(C(=O)N2CCN(c3nc4cc(Cl)ccc4o3)CC[C@H]2C)c1` [Suvorexant], the “Protection from DSS induced acute ulcerative colitis (colon length)” value (“Protection” for short) [1] is reported as “protect mice from DSS induced acute ulcerative colitis disease”.
With “OxA: Orexin A peptide with two disulphide bridges, agonist of OX1R (QPLPDCCRQKTCSCRLYELLHGAGNHAAGILTL; disulfide (positions not given here); ends not checked; also: two disulphide bridges, places not given here; UniProt O43612 34-66, looked up)” the “Disease Activity Index (DAI) scored by weight, length of colon, diarrhea and blood in the stool” value [2] was “ameliorates”, the “IL6 secretion in colon extracts” value [3] was “reduces the secretion” and the “IL10 secretion in colon extracts” value [3] was “has no effect”. The “IL12 secretion in colon extracts” value [3] was “has no effect”, the “INFγ secretion in colon extracts” value [3] was “has no effect” and the “TNFα secretion in colon extracts” value [3] was “reduces the secretion”. The “IL1B in colon extracts” value ([3]; qPCR per FIG. 3) was “reduces the secretion”, the “IL8 homolog in colon extracts” value ([3]; qPCR per FIG. 3) was “reduces the secretion” and the “Effect on severe spontaneous colitis” value [4] was “alleviated severe colitis”. For the same molecule, the “Histological aspect of colonic mucosa (crypts aspect, crypt size, goblet cells, immune cells infiltration)” value ([4]; vs vehicle treated) was “exhibited a normal colonic mucosa”, the “Ca2+ mobilization (agonist effect)” value ([5]; 1 μM) was “induced a large and transient Ca^2+ mobilization” and the “Inhibition of cellular growth” value [6] was “induced a strong inhibition of cellular growth”. For the same molecule, the “Inhibition of cellular growth” value [7] was “induced a strong inhibition of cellular growth”, the “Apoptosis (annexin V-PE binding)” value [8] was “induced an apoptotic effect” and the “Protection” value [1] was “protect mice from DSS induced acute ulcerative colitis disease”.
For `CNC(=O)[C@@H](c1ccccc1)N1CCc2cc(OC)c(OC)cc2[C@@H]1CCc1ccc(C(F)(F)F)cc1` [Almorexant], the “Protection” value [1] was “protect mice from DSS induced acute ulcerative colitis disease”.
`Cc1cc(NC(=O)Nc2ccc(N(C)C)cc2)c2cc(F)cc(F)c2n1` [SB408124] was tested, and the “Effect on OxA-induced Ca2+ mobilization (antagonist effect)” value ([5]; 1 μM preincubation 1 h, then 1 μM OxA) was “totally abolished the induced-Ca^2+ mobilization”, the “Inhibition of cellular growth” value [6] was “induced also a strong inhibition in a dose-dependent manner of cellular growth” and the “Inhibition of cellular growth” value [7] was “induced also a strong inhibition in a dose-dependent manner of cellular growth”. The “Apoptosis (annexin V-PE binding)” value [8] was “able to induce in a dose-dependent manner cell apoptosis”.
